Measured values reported in patent US8088819B2, “Derivatives of substituted 3-phenyl-1-(phenylthienyl)propan-1-ones and of 3-phenyl-1-(phenylfuranyl) propan-1-ones, preparation and use” (priority 2006, dated 2012).

Legend:
Assay type in all cases: cell-based
[1] = tested on: MCP1 and MMP9 genes in human monocytes (THP1); experiment: Expression of MCP1 and MMP9 in human monocytes stimulated with PMA, quantitative RT-PCR; details: 24 h
Experimental: The antiinflammatory effects of the compounds according to the invention were evaluated by measuring the secretion and expression of macrophages chemoattractant protein (MCP1) and of matrix metalloproteinase 9 (MMP9) by monocytes treated with the compounds according to the invention for 24 hours and stimulated with PMA (phorbol 12-myristate 13-acetate, which causes an inflammatory response of the cells). The more the amount of MCP1 secreted is reduced, the greater the inhibitory action of the compounds according to the invention on the inflammatory reaction. Similarly, the more the expression of the genes coding for MCP1 and MMP9 is inhibited, the greater the antiinflammatory effect of the compounds according to the invention.
The THP1 human monocyte line (obtained from ATCC) is cultivated in RPMI1640 medium with addition of 25 mM Hepes (Gibco; 42401-018), 1% glutamine (Gibco; 25030-24) 1% penicillin/streptomycin (Biochrom AG; A 2213) and 10% decomplemented fetal calf serum (FCS. Gibco; 10270-106).
The cells are seeded on 24-well plates (Primaria BD Falcon) at a density of 8.70·10^5 cells/well in the treatment medium (same composition as the culture medium but with 0.2% of decomplemented fetal calf serum) and in the presence of 5 ng/mL of phorbol 12-myristate 13-acetate (PMA) for inducing the inflammatory response.
The compounds according to the invention were tested at 0.1, 0.3 and/or at 1 μm, and dissolved in dimethylsulfoxide (DMSO, Fluka; 41640). The cells are treated for 24 h at 37° C., 5% CO2. The effect of the compound according to the invention is compared with the effect of DMSO alone.
After treatment, the total RNA is extracted from the cells using the NucleoSpin® 96 RNA kit (Macherey Nagel, Hoerdt, France) following the manufacturer's instructions.
1 μg of total RNA (quantified based on the reading of the UV spectrophotometer) was then reverse-transcribed to complementary DNA by reaction for 1 hour at 37° C. in a total volume of 30 μl containing buffer 1× (Invitrogen), 1.5 mM of DTT, 0.18 mM of dNTPs (Promega), 200 ng of pdN6 (Amersham), 30 U of RNase inhibitor (Promega) and 1 μl of MMLV-RT (Invitrogen).
The quantitative PCR experiments were carried out using the MyiQ Single-Color Real-Time PCR Detection System (Biorad, Marnes-la-Coquette, France) and were performed using the iQ SYBR Green Supermix kit following the supplier's recommendations, in 96-well plates, on 5 μl of diluted reverse-transcription reaction mixture with a hybridization temperature of 60° C. Primer pairs specific to the MCP1 and MMP9 genes under investigation were used:
The amount of fluorescence emitted is directly proportional to the amount of complementary DNA present at the start of the reaction and amplified during PCR. […] The relative expression levels of each target are thus determined using the efficacy curves obtained with the points in the range.
The levels of expression of the genes of interest were then normalized, […] relative to the level of expression of the reference gene 36B4 (whose specific primers are: sense primer: 5′-[…]-3′ (SEQ ID No. 19) and antisense primer: 5′-[…]-3′ (SEQ ID No. 20)). The induction factor, i.e. the ratio of the relative signal (induced by the compound according to the invention) to the mean of the relative values of the control group, was then calculated. […]

hPPARalpha = target: T1, hPPARalpha (Homo sapiens, UniProt Q07869); experiment: PPAR activation: Gal4-hPPARα chimera luciferase transactivation in COS-7 cells, Method 1; details: COS-7, 24 h; for Emax: maximum percentage response relative to the reference phenofibric acid, read-out: hPPARalpha % max
T1 construct: expressed in transfected cells; host or cells: COS-7 (monkey kidney fibroblasts)
T1 sequence (Q07869 239-466 limits assumed): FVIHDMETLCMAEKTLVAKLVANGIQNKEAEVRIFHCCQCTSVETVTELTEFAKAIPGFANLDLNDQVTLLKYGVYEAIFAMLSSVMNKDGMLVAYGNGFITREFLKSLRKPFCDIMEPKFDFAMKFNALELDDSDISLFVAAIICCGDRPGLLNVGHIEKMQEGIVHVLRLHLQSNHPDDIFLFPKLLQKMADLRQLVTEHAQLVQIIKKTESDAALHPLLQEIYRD
Method in brief: (§1)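 COS-7 cells transiently transfected with Gal4 DBD–human PPAR LBD (DEF domain) chimeras plus Gal4(RE)_TkpGL3 luciferase reporter (1/10 ratio). Compounds applied 24 h at 37 °C in serum-free medium at doses between 10^−5 and […]; luciferase read after lysis, EC50 derived.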

hPPARgamma = target: T2, hPPARgamma (Homo sapiens, UniProt P37231); experiment: PPAR activation: Gal4-hPPARγ chimera luciferase transactivation in COS-7 cells, Method 1; details: COS-7, 24 h; for Emax: maximum percentage response relative to the reference rosiglitazone, read-out: hPPARgamma % max
T2 construct: expressed in transfected cells; host or cells: COS-7 (monkey kidney fibroblasts)
T2 sequence (P37231 238-503 limits assumed): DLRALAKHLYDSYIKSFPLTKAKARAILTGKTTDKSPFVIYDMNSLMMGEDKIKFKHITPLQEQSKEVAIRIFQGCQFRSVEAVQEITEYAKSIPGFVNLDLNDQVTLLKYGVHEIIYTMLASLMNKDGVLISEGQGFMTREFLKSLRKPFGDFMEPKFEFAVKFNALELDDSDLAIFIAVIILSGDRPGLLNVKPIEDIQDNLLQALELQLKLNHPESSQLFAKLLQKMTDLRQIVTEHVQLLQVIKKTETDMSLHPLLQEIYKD
Method in brief: as §1

EC50 (hPPARalpha) | Emax (hPPARalpha) | EC50 (hPPARgamma) | Emax (hPPARgamma) | SMILES | expression of MCP1 in human monocytes ([1]; at 0.1 and 0.3 μm) | expression of MCP1 in human monocytes ([1]; at 1 μm) | expression of MMP9 in human monocytes ([1]; at 1 μm)
53 nM | 43% | 60 nM | 11% | CC(C)(Oc1ccc(CCC(=O)c2ccc(-c3ccc(C(F)(F)F)cc3)s2)c(Cl)c1Cl)C(=O)O [Compound 2, 2-(2,3-dichloro-4-(3-oxo-3-(5-(4-(trifluoromethyl)phenyl)thien-2-yl)propyl)phenoxy)-2-methylpropanoic acid] | significant decrease |  | 
125 nM | 50% |  | 38% | CC(C)(Oc1ccc(CCC(O)c2ccc(-c3ccc(C(F)(F)F)cc3)s2)c(Cl)c1Cl)C(=O)O (stereo not shown) [Compound 4, 2-(2,3-dichloro-4-(3-hydroxy-3-(5-(4-(trifluoromethyl)phenyl)thien-2-yl)propyl)phenoxy)-2-methylpropanoic acid] |  |  | 
 |  |  |  | CC(C)(Oc1ccc(CCC(OCc2ccccc2)c2ccc(-c3ccc(C(F)(F)F)cc3)s2)c(Cl)c1Cl)C(=O)O (stereo not shown) [Compound 7, 2-(4-(3-(benzyloxy)-3-(5-(4-(trifluoromethyl)phenyl)thien-2-yl)propyl)-2,3-dichlorophenoxy)-2-methylpropanoic acid] |  | significant decrease | significant decrease
288 nM | 39% | 1170 nM | 55% | CC(C)(Oc1ccc(CCC(=O)c2cc(-c3ccc(C(F)(F)F)cc3)cs2)c(Cl)c1Cl)C(=O)O [Compound 11, 2-(2,3-dichloro-4-(3-oxo-3-(4-(4-(trifluoromethyl)phenyl)thien-2-yl)propyl)phenoxy)-2-methylpropanoic acid] |  | significant decrease | significant decrease
